# Test results published in patent US20030215517A1, “Process for production of crystals of an adjuvant substance, crystals obtained thereby and pharmaceutical preparations containing them” (priority 2002, published 2003).
# Marks after values point to notes of the source that are not given here.
# What was measured:
# Assay type in all cases: physicochemical
# [1] = Particle size distribution before and after drying (Sympatec HELOS, dry dispersion RODOS)
# Method: The particle size distribution in Table I was measured with a Sympatec HELOS (H0445), dry dispersion system (RODOS), pressure 2 bar.
# [2] = Particle size development during crystallization with wet milling and temperature cycles (Example 1)
# Method: In a sulfonation flask with a blade mixer and a heating/cooling bath 30 g of lactose monohydrate are dissolved in 100 g of water at 62° C. A rotor-stator dispersing apparatus (Ultra Turrax, T25 basic, with S25N-25F) is operated with a rotation speed of 12000 to 22000 rpm to prepare the solution. Then 300 g of ethanol are added. After 1 to 2 minutes crystallization begins at 25 to 35° C. The Ultra Turrax is operated for an additional 10 minutes and then is shut off.
# The starting suspension obtained is heated at 50° C. and subsequently cooled within an interval of 1 hour at 20° C. This procedure is repeated still twice more.
# [3] = Particle size distribution of spray-dried microcrystals (Example 2); details: Example 2, microcrystals spray-dried from ethanol suspension
# Method: (§1) Subsequently the suspension obtained in example 1 is filtered by means of a frit and washed with 100 ml of ethanol. The filter cake is suspended in 300 ml ethanol. The suspension is spray-dried under the following conditions in a laboratory spray-drier with two nozzles (2 mm) (QVF/Yamato):
# (§2) Microcrystals are obtained in a separating filter of the spray-drier with the following particle size distribution: […]
# [4] = Moisture content of spray-dried microcrystals (Example 2); details: Example 2, microcrystals spray-dried from ethanol suspension
# Method: as §1, §2
# [5] = Suspension, 7 percent by weight lactose monohydrate in EtOH/water 75/25 (w/w), before drying
# [6] = Example 1, 1st Cycle (heated at 50° C., cooled to 20° C. within 1 hour)
smiles,measurement,setting,value
O.OC[C@H]1O[C@@H](O[C@H]2[C@H](O)[C@@H](O)C(O)O[C@@H]2CO)[C@H](O)[C@@H](O)[C@H]1O (stereo partly drawn) [lactose monohydrate],X10 particle diameter,"[1]; After spray-drying, dry powder",2.25 μm
same,X50 particle diameter,"[1]; After spray-drying, dry powder",6.0 μm
same,X100 particle diameter,"[1]; After spray-drying, dry powder",43 μm
same,X10 particle diameter,[1]; [5],2.11*** μm
same,X50 particle diameter,[1]; [5],5.9 μm
same,X100 particle diameter,[1]; [5],43 μm
same,X50,[2]; [6],5 μm
same,X100,[2]; [6],43 μm
same,X50,"[2]; Example 1, 2nd Cycle",5.5 μm
same,X100,"[2]; Example 1, 2nd Cycle",43 μm
same,X50,"[2]; Example 1, 3rd Cycle",6 μm
same,X100,"[2]; Example 1, 3rd Cycle",43 μm
same,X50,"[2]; Example 1, Starting Suspension",3 μm
same,X100,"[2]; Example 1, Starting Suspension",30 μm
same,Particle size X10,[3],2.5 μm
same,Particle size X50,[3],5.9 μm
same,Particle size X100,[3],43 μm
same,Moisture content,[4],4.5%
